Laboratory results as given in PMC12143354, “Determining sex differences in aortic valve myofibroblast responses to drug combinations identified using a digital medicine platform” (Science Advances, 2025).
Read-outs that look alike come from different tables or passages of the source.

Tests used:
male VICs [1] = experiment: percent αSMA GMI reduction by immunofluorescent staining, male VICs on TCPS; type: cell-based, pig; conditions: for reduction in αSMA GMI, initial screen: male VICs on TCPS, dosing range 10^-7 to 10^3 μM; for Percent αSMA reduction, Average: male VICs, n = 3 wells; for Percent αSMA reduction, Average / sex difference in efficacy (male versus female EC20): TCPS; for sex difference in efficacy (male versus female EC20): unpaired two-tailed t test, P < 0.05
Description: (§1) VICs were collected by aspirating off spent media, washing with PBS (Sigma-Aldrich) for 1 min, then incubating with 1× trypsin (Life Technologies) for 3 min. Trypsin was neutralized with an equal volume of 15% FBS growth media and centrifuged for 5 min at 0.2g. The media solution was then aspirated, and VICs were resuspended with 1 ml of 1% FBS media. VICs were counted with an automated hemocytometer to calculate the volume of cell solution to add to each well to seed at 6400 cells per well (20,000 cells/cm^2) for TCPS and hydrogel experiments. […] For each inhibitor, the nonlinear regression tool in Prism was used to estimate the response against the agonist by fitting the top, bottom, EC50/CC50, and hillslope to each dataset.

female VICs [2] = experiment: percent αSMA GMI reduction by immunofluorescent staining, female VICs on TCPS; type: cell-based, pig; conditions: for reduction in αSMA GMI, initial screen: female VICs on TCPS, dosing range 10^-7 to 10^3 μM; for Percent αSMA reduction, Average: female VICs, TCPS, n = 3 wells
Description: as §1

female VICs [3] = experiment: percent αSMA GMI reduction, female VICs on soft hydrogels; type: cell-based, pig; conditions: n = 3 gels
Source text: (§2) Last, we tested the ability of […]-designed combinations to prevent myofibroblast activation in VICs cultured on other substrates beyond stiff hydrogels. […] Six male-optimized combinations were effective in preventing male VIC myofibroblast activation (Fig. 7K). […] Single-drug monotherapies used in the top male and female drug combinations were confirmed to have a minimal effect on male and female VIC αSMA GMI on soft hydrogels (table S14). […] After aspirating off the spent media, VICs were resuspended in 5 ml of fresh 15% FBS media and seeded on T25 Falcon tissue culture-treated flasks (Thermo Fisher Scientific). […] VICs were collected by aspirating off spent media, washing with PBS (Sigma-Aldrich) for 1 min, then incubating with 1× trypsin (Life Technologies) for 3 min. Trypsin was neutralized with an equal volume of 15% FBS growth media and centrifuged for 5 min at 0.2g. The media solution was then aspirated, and VICs were resuspended with 1 ml of 1% FBS media. VICs were counted with an automated hemocytometer to calculate the volume of cell solution to add to each well to seed at 6400 cells per well (20,000 cells/cm^2) for TCPS and hydrogel experiments. […] For each inhibitor, the nonlinear regression tool in Prism was used to estimate the response against the agonist by fitting the top, bottom, EC50/CC50, and hillslope to each dataset.

male VICs [4] = experiment: percent αSMA GMI reduction, male VICs on stiff hydrogels; type: cell-based, pig; conditions: for EC1 / EC2 / Percent αSMA reduction, Average: male VICs; for EC1 / EC2: from dose response curves; for Percent αSMA reduction, Average: n = 3-4 gels
Description: (§3) Glass-bottom 96-well plates (Cellvis) were placed in an autoclave jar with a scintillation vial containing 100 μl of mercaptopropyltrimethoxysilane (MPTS; Sigma-Aldrich). The autoclave jar was then lightly sealed and placed inside an oven at 60°C for a minimum of 6 hours. The autoclave jar was opened in a chemical fume hood, and the vapor-deposited well plate was stored for up to 2 hours until ready for use. Eight-arm 20-kDa PEG-norbornene (PEG-Nb) was formed as outlined previously ([76]). A 7% (w/v) PEG-Nb hydrogel precursor solution was formed by combining phosphate-buffered saline (PBS), 20-kDa PEG-Nb at a 0.98:1 thiol-to-ene ratio, 5-kDa PEG-dithiol (Jenkem), CRGDS cell binding motif (Bachem), and lithium phenyl-2,4,6-trimethyl-benzoylphosphinate (Thermo Fisher Scientific). An EPMotion 5073l automated liquid handling system (Eppendorf) was used to pipet 7 μl of the hydrogel precursor solution into the center of each well of the vapor-deposited 96-well glass-bottom plate. The well plate with the hydrogel precursor solution was then stamped using a custom 96-well plate stamp, inverted, and cured under ultraviolet light at 10 mW/cm^2 for 3 min to induce gelation. The stamp was carefully removed by hand, and the newly formed gels were sterilized with a solution of 5% isopropyl alcohol (Thermo Fisher Scientific) in PBS for 20 min. Gels were then washed twice with PBS and stored in VIC media composed of Media199 (Life Technologies), 1% fetal bovine serum (FBS, Life Technologies), amphotericin B (1 μg/ml; Thermo Fisher Scientific), penicillin (50 U/ml; Sigma-Aldrich), and streptomycin (50 μg/ml; Sigma-Aldrich). Last, the hydrogels were placed in an incubator at 37°C with 5% carbon dioxide for up to 24 hours until experimental use.
(§4) Media changes were performed every 24 to 48 hours until cells reached ~80% confluency. […] The media solution was then aspirated, and VICs were resuspended with 1 ml of 1% FBS media. VICs were counted with an automated hemocytometer to calculate the volume of cell solution to add to each well to seed at 6400 cells per well (20,000 cells/cm^2) for TCPS and hydrogel experiments. For all experiments, VICs were seeded with 1% FBS media containing the specified drug doses and incubated at 37°C with 5% carbon dioxide with media changes every 48 to 72 hours if needed.
(§5) Drug stock solutions were discarded after two thaw cycles or after 10 months of storage. For all experiments, drug dilutions were calculated and added to VIC media to ensure that total DMSO levels remained below 1% for cytotoxicity and αSMA reduction curve fitting experiments and below 0.3% for drug combination experiments.
(§6) After culture on hydrogels or TCPS, the spent drug-containing media were removed, and VICs were immersed in a 4% paraformaldehyde solution in PBS for 20 min and then permeabilized for 1 hour with 0.1% Triton X-100 (Thermo Fisher Scientific) in PBS. Cells were then blocked with 5% bovine serum albumin in PBS for 1 hour at room temperature or over the weekend at 4°C. […] Last, VICs were washed once with PBS and then stored in PBS at 4°C until imaging. Gel samples were imaged in situ using a Nikon Eclipse Ti2-E and analyzed using an automated MATLAB code to quantify the αSMA gradient mean intensities and caspase-3 intensities normalized to cell mask for each cell. A minimum of 100 cells were used per gel with multiple gels used per condition.
(§7) Curve fitting for VIC percent αSMA reduction and cytotoxicity was performed using GraphPad Prism 10 (GraphPad Software Inc). For each inhibitor, the nonlinear regression tool in Prism was used to estimate the response against the agonist by fitting the top, bottom, EC50/CC50, and hillslope to each dataset. After 2 days of culture, the percent αSMA reduction was calculated using the average αSMA gradient mean intensities of the control relative to the drug condition using Eq. 1 %αSMA reduction=100×(Control−Drug Condition/Control) (1)

female VICs [5] = system: female VICs
Description: as §6
(§8) Percent cytotoxicity was determined by designating each cell as alive or dead using caspase-3 intensity normalized to cell mask intensity, which was thresholded using a positive and negative control for cell death [10 nM staurosporine (Cell Signaling Technologies) or 1% FBS media]. The bottom value for every curve fit was set to 0, and the top value was constrained to a maximum of 100 to indicate the maximum possible effect of the drug. […] Absolute EC and CC values for % αSMA reduction and percent cytotoxicity were quantified using the top, bottom, EC50/CC50, and hillslope values estimated from the curve fits generated in GraphPad Prism (GraphPad Software Inc).

male VICs [6] = system: male VICs
Description: as §6, §8

female VICs [7] = experiment: percent αSMA GMI reduction, female VICs on stiff hydrogels; type: cell-based, pig; conditions: for EC1 / EC2: from dose response curves; for Percent αSMA reduction, Average: n = 3-4 gels
Description: as §3, §4, §5, §6, §7

male VICs [8] = experiment: percent αSMA GMI reduction, male VICs on soft hydrogels; type: cell-based, pig; conditions: n = 3 gels
Source text: as §2

[9] = female VICs, stiff hydrogels, from dose response curves
[10] = male VICs, stiff hydrogels, from dose response curves

Row | SMILES | reduction in αSMA GMI, initial screen (male VICs [1]) [%] | Percent αSMA reduction, Average (male VICs [1]; single drug at L2 dose) [%] | reduction in αSMA GMI, initial screen (female VICs [2]) [%] | Percent αSMA reduction, Average (female VICs [2]; single drug at L2 dose) [%] | Percent αSMA reduction, Average (female VICs [3]; single drug at L2 dose) [%] | EC1 (male VICs [4]) [µM] | EC2 (male VICs [4]) [µM] | Percent αSMA reduction, Average (male VICs [4]; single drug at level 1 dose) [%] | Percent αSMA reduction, Average (male VICs [4]; single drug at level 2 dose) [%] | EC1 (female VICs [7]) [µM] | EC2 (female VICs [7]) [µM] | Percent αSMA reduction, Average (female VICs [7]; single drug at level 1 dose) [%] | Percent αSMA reduction, Average (female VICs [7]; single drug at level 2 dose) [%] | Percent αSMA reduction, Average (male VICs [8]; single drug at L2 dose) [%] | CC1 (female VICs [5]; female, pig) [µM] | CC2 (female VICs [5]; female, pig) [µM] | CC25 (percent cytotoxicity) (female VICs [5]; female, pig) [µM] | CC1 (male VICs [6]; male, pig) [µM] | CC2 (male VICs [6]; male, pig) [µM] | CC25 (percent cytotoxicity) (male VICs [6]; male, pig) | also measured
1 | Cc1cncc2cccc(S(=O)(=O)N3CCCNC[C@@H]3C)c12 [Combination H1152] | > 25 | -0.09 | > 25 | 2.30 | 3.37 | 1.96 | 2.82 | -5.03 | 0.66 | 0.0765 | 0.198 | 8.04 | 12.39 | -5.04 |  |  |  |  |  |  | CC25 (percent cytotoxicity) (female VICs [5]; female VICs on stiff gels, n = 3 gels): 72.6 µM; CC1 (female VICs [5]; [9]): 0.26 µM; CC2 (female VICs [5]; [9]): 0.806 µM; CC25 (percent cytotoxicity) (male VICs [6]; male VICs on stiff gels, n = 3 gels): 6.27 µM; CC1 (male VICs [6]; [10]): 0.162 µM; CC2 (male VICs [6]; [10]): 0.28 µM
2 | C[C@@H](N)[C@H]1CC[C@H](C(=O)Nc2ccncc2)CC1 [Combination Y-27632] | > 25 |  | > 25 | -2.07 | 8.24 | 0.558 | 1.34 | 0.24 | 2.37 | 1.31 | 2.81 | 28.93 | 22.12 |  |  |  |  |  |  |  | sex difference in efficacy (male versus female EC20) (male VICs [1]): significantly more effective in male VICs relative to female VICs; Percent αSMA reduction, Average (male VICs [1]; single drug at L1 dose): 6.48%; Percent αSMA reduction, Average (female VICs [2]; single drug at L1 dose): 0.37%; Percent αSMA reduction, Average (female VICs [3]; single drug at L1 dose): 3.22%; CC1 (female VICs [5]): 27.5 µM; CC2 (female VICs [5]): 37.9 µM; CC25 (percent cytotoxicity) (female VICs [5]): 135 µM; CC1 (male VICs [6]): 10.8 µM; CC2 (male VICs [6]): 19.9 µM; CC25 (percent cytotoxicity) (male VICs [6]): 224 µM; Percent αSMA reduction, Average (male VICs [8]; single drug at L1 dose): -2.58%
3 | O=c1cc(N2CCOCC2)oc2c(-c3ccccc3)cccc12 [LY294002] | > 25 | -4.91 | > 25 | -8.32 | 11.35 | 12.8 | 17.6 | 6.86 | 5.50 | 8.63 | 13.4 | 9.50 | 2.75 | 13.23 | 17.7 | 21.3 | 45.2 | 21.5 | 25.2 | 46.9 µM | 
4 | CCCCc1nc(Cl)c(CO)n1Cc1ccc(-c2ccccc2-c2nn[nH]n2)cc1 [Losartan] | > 25 | -1.33 | > 25 | 1.39 | 2.73 | 18.7 | 32.9 | 5.58 | 0.99 | 154 | 219 | 7.00 | 2.37 | 0.81 | 11.1 | 27 | 927 | 378 | 470 | 1,123 uM | sex difference in efficacy (male versus female EC20) (male VICs [1]): significantly more effective in male VICs relative to female VICs; sex difference in efficacy (male versus female EC20) (male VICs [4]; unpaired two-tailed t test, P < 0.05): reducing αSMA GMI more in male VICs relative to female VICs
5 | C[S+]([O-])c1ccc(-c2nc(-c3ccncc3)c(-c3ccc(F)cc3)[nH]2)cc1 (centres unmarked) [SB203580] | > 25 |  | > 25 |  |  | 24.8 | 40.8 | 5.45 | 3.67 | 7.56 | 14.5 | 2.35 | -6.55 |  | 29.8 | 48.9 | 874 | 0.413 | 2.18 | 1,613 uM | 
